ChEMBL document CHEMBL1153927, “Benzimidazolone-based serotonin 5-HT1A or 5-HT7R ligands: synthesis and biological evaluation” (Bioorg Med Chem Lett, 2009)

Assays:
[1] = target: 5-hydroxytryptamine receptor 7 (Homo sapiens, UniProt P34969); assay: Inhibition of human 5HT7 receptor expressed in HEK293 cells by competitive binding assay; format: cell-based
[2] = target: T1, 5-hydroxytryptamine receptor 1A (Rattus norvegicus, UniProt P19327); assay: Inhibition of rat hippocampus 5HT1A receptor by competitive binding assay; format: tissue-based
T1 sequence (P19327 whole entry): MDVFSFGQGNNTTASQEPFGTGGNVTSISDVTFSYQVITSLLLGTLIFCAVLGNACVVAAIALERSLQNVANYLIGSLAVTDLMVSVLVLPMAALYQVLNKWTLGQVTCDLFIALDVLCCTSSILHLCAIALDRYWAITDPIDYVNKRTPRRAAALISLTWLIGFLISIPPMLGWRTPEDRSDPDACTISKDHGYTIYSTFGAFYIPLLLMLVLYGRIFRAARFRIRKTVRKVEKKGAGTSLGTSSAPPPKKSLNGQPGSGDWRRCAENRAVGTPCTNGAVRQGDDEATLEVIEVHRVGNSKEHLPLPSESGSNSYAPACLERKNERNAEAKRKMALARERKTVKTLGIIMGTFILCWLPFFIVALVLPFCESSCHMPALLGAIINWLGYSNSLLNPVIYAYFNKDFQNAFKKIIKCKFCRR

5-hydroxytryptamine receptor 7, sequence (P34969 whole entry): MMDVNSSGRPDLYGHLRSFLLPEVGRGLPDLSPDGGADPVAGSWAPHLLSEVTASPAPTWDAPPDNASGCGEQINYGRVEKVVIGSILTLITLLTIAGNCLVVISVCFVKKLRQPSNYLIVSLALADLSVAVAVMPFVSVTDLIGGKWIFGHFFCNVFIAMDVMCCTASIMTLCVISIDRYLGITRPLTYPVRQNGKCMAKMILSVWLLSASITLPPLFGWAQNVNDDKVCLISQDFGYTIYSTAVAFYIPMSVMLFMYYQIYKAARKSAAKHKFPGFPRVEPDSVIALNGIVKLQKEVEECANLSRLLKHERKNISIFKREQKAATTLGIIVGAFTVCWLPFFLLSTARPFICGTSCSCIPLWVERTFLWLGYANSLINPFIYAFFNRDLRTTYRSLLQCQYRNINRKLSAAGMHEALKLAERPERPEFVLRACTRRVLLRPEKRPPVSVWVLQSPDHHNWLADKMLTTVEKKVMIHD

SMILES | Ki [1] | Ki [2]
COc1ccccc1N1CCN(Cc2ccn(-c3ccccc3C)c2)CC1 | 4.3 nM | –
O=c1n(CCN2CCN(c3ccccc3)CC2)c2ccccc2n1-c1ccccc1 | 1230 nM | 467 nM
O=c1[nH]c2ccccc2n1CCCCN1CCN(c2ccccc2)CC1 | 48 nM | 84 nM
COc1ccccc1N1CCN(CCCCn2c(=O)[nH]c3ccccc32)CC1 | 26 nM | 6 nM
COc1ccccc1N1CCN(CCCCCn2c(=O)[nH]c3ccccc32)CC1 | 38 nM | 33 nM
COc1ccc(-n2c(=O)n(CCN3CCN(c4ccccc4OC)CC3)c3ccccc32)cc1 | 296 nM | 22 nM
COc1ccc(-n2c(=O)n(CCCN3CCN(c4ccccc4OC)CC3)c3ccccc32)cc1 | 168 nM | 26 nM
COc1ccc(-n2c(=O)n(CCCCN3CCN(c4ccccc4OC)CC3)c3ccccc32)cc1 | 267 nM | 36 nM
COc1ccccc1N1CCN(CCn2c(=O)[nH]c3ccccc32)CC1 | 1840 nM | 25 nM
COc1cccc(-n2c(=O)n(CCN3CCN(c4ccccc4)CC3)c3ccccc32)c1 | 864 nM | 646 nM
COc1ccc(-n2c(=O)n(CCN3CCN(c4ccccc4)CC3)c3ccccc32)cc1 | 566 nM | 340 nM
Cc1ccccc1N1CCN(CCn2c(=O)n(-c3ccccc3)c3ccccc32)CC1 | 1870 nM | 168 nM
Cc1ccccc1-n1c(=O)n(CCN2CCN(c3ccccc3)CC2)c2ccccc21 | 902 nM | 636 nM
COc1ccccc1N1CCN(CCCn2c(=O)[nH]c3ccccc32)CC1 | 40 nM | 3.4 nM
O=c1[nH]c2ccccc2n1CCCN1CCN(c2ccccc2)CC1 | 243 nM | 26 nM
O=c1[nH]c2ccccc2n1CCCCCCN1CCN(c2ccccc2)CC1 | 20 nM | 48 nM
O=c1[nH]c2ccccc2n1CCCCCN1CCN(c2cccc(Cl)c2)CC1 | 11 nM | 66 nM
O=c1[nH]c2ccccc2n1CCN1CCN(c2ccccc2)CC1 | 1030 nM | 392 nM
O=c1[nH]c2ccccc2n1CCCCCN1CCN(c2ccccc2)CC1 | 6 nM | 269 nM
COc1cccc(-n2c(=O)n(CCN3CCN(c4ccccc4C)CC3)c3ccccc32)c1 | 2500 nM | 182 nM
Cc1ccccc1N1CCN(CCn2c(=O)n(-c3ccccc3C)c3ccccc32)CC1 | 18000 nM | 375 nM
O=c1[nH]c2ccccc2n1CCCCCN1CCN(c2ccc(Cl)cc2)CC1 | 7 nM | 454 nM
COc1ccccc1N1CCN(CCCCCCn2c(=O)[nH]c3ccccc32)CC1 | 78 nM | 12 nM
